Assay results published in patent US20090137652A1, “METHODS FOR NEUROPROTECTION” (priority 2005, published 2009).

Test system: rats subjected to li-pilo SE
Assay: Quantification of cell densities 14 days after lithium-pilocarpine SE (Example 2)
Type: in vivo, rat
Details: 14 days after SE
Experimental: All rats received lithium chloride (3 meq/kg, i.p., Sigma, St Louis, Mo., U.S.A.) and about 20 h later, all animals received also methylscopolamine bromide (1 mg/kg, s.c., Sigma) that was administered to limit the peripheral effects of the convulsant. SE was induced by injecting pilocarpine hydrochloride (25 mg/kg, s.c., Sigma) 30 min after methylscopolamine. The effects of increasing doses of TC (RWJ) were studied in 5 groups of rats. […] The control group received vehicle instead of pilocarpine and TC.
At the moment, neuronal counting is still in progress in the second group of animals studied for epileptogenesis and long-term counting and the data concerning that part of the study will not be included in the present report. For neuronal counting, animals were deeply anesthetized with […] pentobarbital (Dolethal®, Vetoquinol, Lure, France). Brains were then removed and frozen. Serial 20 μm slices were cut in a cryostat, air-dried during several days before thionine staining. […] The grid of counting was placed on a well defined area of the cerebral structure of interest and counting was carried out with a microscopic enlargement of 200- or 400-fold defined for each single cerebral structure. Cell counts were performed twice on each side of three adjacent sections for each region by a single observer unaware of the animal's treatment. The number of cells obtained in the 12 counted fields in each cerebral structure was averaged. This procedure was used to minimize the potential errors that could result from double counting leading to overestimation of cell numbers. […] Counts involved only neurons with cell bodies larger than 10 μm. Cells with small cell bodies were considered as glial cells and were not counted.
For neuronal damage and epileptogenesis, statistical analysis between groups was performed by means of a one-way analysis of variance followed by a post-hoc Dunnett or Fisher test using the Statistica software.

## NC(=O)OC[C@@H](O)c1ccccc1Cl [Formula 7]
pilo-TC60 (60 mg/kg), n = 11
  number of neuronal cell bodies, Cerebral cortex, Piriform, layer III: 6.4 ± 2.3
  number of neuronal cell bodies, Hippocampus, CA1 area: 31.9 ± 4.4**°°
  number of neuronal cell bodies, Hippocampus, CA3 area: 31.6 ± 1.4
  number of neuronal cell bodies, Hippocampus, Hilus: 32.8 ± 3.3
  number of neuronal cell bodies, Thalamus, Central medial: 83.7 ± 9.6
  number of neuronal cell bodies, Thalamus, Dorsolateral, medial, dorsal: 77.5 ± 3.9**°°
  number of neuronal cell bodies, Thalamus, Dorsolateral, ventral lateral: 56.7 ± 8.7
  number of neuronal cell bodies, Thalamus, Mediodorsal central: 24.1 ± 1
  number of neuronal cell bodies, Thalamus, Mediodorsal lateral: 18.9 ± 0.6
  number of neuronal cell bodies, Thalamus, Mediodorsal medial: 19.1 ± 2.6
pilo-TC90 (90 mg/kg), n = 10
  number of neuronal cell bodies, Amygdala, Basolateral: 40.7 ± 1.6°°
  number of neuronal cell bodies, Amygdala, Medial, dorsal anterior: 72.2 ± 5.7°°
  number of neuronal cell bodies, Amygdala, Medial, ventral posterior: 30.7 ± 3.7°°
  number of neuronal cell bodies, Cerebral cortex, Entorhinal, layer II, dorsal: 26.3 ± 0.9
  number of neuronal cell bodies, Cerebral cortex, Entorhinal, layer II, ventral: 25.4 ± 1.1°
  number of neuronal cell bodies, Cerebral cortex, Entorhinal, layer III/IV, dorsal: 26.7 ± 0.8
  number of neuronal cell bodies, Cerebral cortex, Entorhinal, layer III/IV, ventral: 23.7 ± 1.5°°
  number of neuronal cell bodies, Cerebral cortex, Piriform, layer II, dorsal: 32.4 ± 1.1°°
  number of neuronal cell bodies, Cerebral cortex, Piriform, layer II, ventral: 18.4 ± 4.0°°
  number of neuronal cell bodies, Cerebral cortex, Piriform, layer III: 9 ± 3.0°°
  number of neuronal cell bodies, Hippocampus, CA1 area: 47.7 ± 6.6*°
  number of neuronal cell bodies, Hippocampus, CA3 area: 35.1 ± 2.9
  number of neuronal cell bodies, Hippocampus, Hilus: 37.5 ± 3.1
  number of neuronal cell bodies, Thalamus, Central medial: 88.2 ± 8.5
  number of neuronal cell bodies, Thalamus, Dorsolateral, medial, dorsal: 79.4 ± 3.1**°°
  number of neuronal cell bodies, Thalamus, Dorsolateral, ventral lateral: 71.8 ± 5.3°°*
  number of neuronal cell bodies, Thalamus, Mediodorsal central: 27.4 ± 1.5
  number of neuronal cell bodies, Thalamus, Mediodorsal lateral: 22 ± 1.2*°
  number of neuronal cell bodies, Thalamus, Mediodorsal medial: 23.1 ± 2.8°°
pilo-TC120 (120 mg/kg), n = 8
  number of neuronal cell bodies, Amygdala, Basolateral: 42.7 ± 1.3°°
  number of neuronal cell bodies, Amygdala, Medial, dorsal anterior: 80.2 ± 2.6°°
  number of neuronal cell bodies, Amygdala, Medial, ventral posterior: 34.7 ± 1.7°°
  number of neuronal cell bodies, Cerebral cortex, Entorhinal, layer II, dorsal: 27.3 ± 0.5°°
  number of neuronal cell bodies, Cerebral cortex, Entorhinal, layer II, ventral: 25.1 ± 0.6
  number of neuronal cell bodies, Cerebral cortex, Entorhinal, layer III/IV, dorsal: 26.4 ± 0.7°°
  number of neuronal cell bodies, Cerebral cortex, Entorhinal, layer III/IV, ventral: 24.5 ± 1.4°°
  number of neuronal cell bodies, Cerebral cortex, Piriform, layer II, dorsal: 35.2 ± 1.1°°
  number of neuronal cell bodies, Cerebral cortex, Piriform, layer II, ventral: 30.5 ± 1.3°°
  number of neuronal cell bodies, Cerebral cortex, Piriform, layer III: 15 ± 2.2°°
  number of neuronal cell bodies, Hippocampus, CA1 area: 65.5 ± 2.9°°
  number of neuronal cell bodies, Hippocampus, CA3 area: 39.8 ± 1.5
  number of neuronal cell bodies, Hippocampus, Hilus: 44.8 ± 2.9
  number of neuronal cell bodies, Thalamus, Central medial: 108.2 ± 6.6°
  number of neuronal cell bodies, Thalamus, Dorsolateral, medial, dorsal: 89.8 ± 3.7*°
  number of neuronal cell bodies, Thalamus, Dorsolateral, ventral lateral: 79.0 ± 4.7°°
  number of neuronal cell bodies, Thalamus, Mediodorsal central: 29.9 ± 1.7°
  number of neuronal cell bodies, Thalamus, Mediodorsal lateral: 24.4 ± 1.1°°
  number of neuronal cell bodies, Thalamus, Mediodorsal medial: 28.6 ± 0.8°°
